Key:
[1] = molar ratio 1:1 (zinc: Aβ); read-out: KD of high affinity zinc binding; cited from earlier work
[2] = Diffusion across excised human epidermis, flow-through diffusion cells, finite dose; settings: test spray (5% w/v 1,10-phenanthroline + 5% w/v octyl salicylate in 95% ethanol) vs control without enhancer, 24 h, 5 μL/cm^2, p<0.01
Protocol: The diffusion experiments were performed using excised human epidermis as the model membrane. These experiments were performed over 24 h with stainless steel, flow-through diffusion cells based on those previously described, (Cooper, E. R. J. Pharm. Sci. 1984, 73, 1153-1156.) except that the cell was modified to increase the diffusional area to 1.0 cm^2. The formulations were applied using a finite dose technique (Franz, T. J. Curr. Probl. Dermatol. 1978, 7, 58-68.) to mimic clinical dosing conditions at an applied dose volume of 5 μL/cm^2. A piece of stainless steel wire mesh was placed directly below the skin in the receptor chamber of the diffusion cell to maintain a turbulent flow of receptor solution below the skin. The diffusion cells were maintained at a flow rate of approximately 1.0 ml/cm^2/h by a microcassette peristaltic pump (Watson Marlow 505S, UK). The cells were kept at 32±0.5° C. by a heater bar and the samples are collected into appropriately sized plastic vials on an automated fraction collector (Isco Retriever II, Lincoln, Nebr.) at specified intervals. […]
Samples were analysed for 1,10-phenanthroline directly by RP-HPLC using the following conditions; Column—Waters Symmetry C18 column (3.9×150 mm) with a 5 μm support size; Mobile phase—20% Acetonitrile buffered with 0.01 M KH2PO4, pH=2.80; Flow rate—0.9 mL/min; Absorbance—235 nm; and Injection volume—20 μL.

| Compound | Kd [1] [nM] | increase in the transdermal delivery of 1,10-phenanthroline across the skin [2] [fold] |
| --- | --- | --- |
| Aβ: polypeptide, major component of the amyloid deposits in Alzheimer's disease | 107 | – |
| c1cnc2c(c1)ccc1cccnc12 [1,10-phenanthroline] | – | 1.3 |

Reference: patent publication US20070275943A1, “Method and Composition for Treatment or Prophylaxis of Amyloidosis Disorders” (Acrux DDS Pty Ltd., priority 2003, published 2007)
